Experimental data: patent publication US9006191B2, “Silencing of polo-like kinase expression using interfering RNA” (Protiva Biotherapeutics, Inc., priority 2007, dated 2015)
“Also recorded” adds a separate entry of the source.

What was measured:
HT29 cells = assay: HT29 cell viability assay (CellTiter-Blue); type: cell-based, human; details: for anti-proliferative activity in screen of PLK-1 siRNA panel: HT29 cells, 1, 5, 25 nM, 72 h; for cell viability / killing of human tumor cells: HT29 cells, SNALP-formulated siRNA at a range of siRNA concentrations, viability at 72 h relative to PBS
Experimental: Various PLK-1 siRNAs were formulated as SNALP (“2:40” SNALP formulation: 2% PEG-cDMA; 40% DLinDMA; 10% DSPC; and 48% cholesterol) and evaluated for their inhibitory effects on cell growth in vitro. HT29 (human colon adenocarcinoma) or Neuro2A (mouse neuroblastoma) cells were treated with various PLK-1 SNALP at a range of siRNA concentrations and their effect on cell viability was evaluated. Viability of cell cultures is expressed as % viability relative to PBS treated controls.
Additional PLK-1 siRNA molecules were formulated as SNALP (“2:40” SNALP formulation: 2% PEG-cDMA; 40% DLinDMA; 10% DSPC; and 48% cholesterol) and evaluated for their inhibitory effects on cell growth in vitro. HT29 or Neuro2A cells were plated in triplicate at 5000 cells/well and 2500 cells/well, respectively. PLK-1 SNALP dosages were as follows: 25 nM; 5 nM; and 1 nM. Cell viability analysis was performed at 72 hours following transfection. SNALP containing a non-targeting (GFP) siRNA were used as a negative control. […]
PLK-1 siRNA molecules containing 2′-O-methyl (2′OMe) nucleotides at selective positions within the double-stranded region of the siRNA duplex were formulated as SNALP (“2:40” SNALP formulation: 2% PEG-cDMA; 40% DLinDMA; 10% DSPC; and 48% cholesterol) and evaluated for their inhibitory effects on cell growth in vitro. HT29 cells were plated in triplicate at 5000 cells/well. Cell viability analysis was performed at 72 hours following transfection with a range of PLK-1 SNALP dosages. SNALP containing a non-targeting (GFP) siRNA were used as a negative control.
Cell viability assays. […] Cell viability analysis was performed at 72 hours following transfection with a range of PLK-1 SNALP dosages.

PLK-1 mRNA = PLK-1 mRNA silencing in cell cultures (QuantiGene branched DNA assay); type: cell-based, human; details: 0.12-30 nM SNALP, 24 h
Experimental: Target mRNA Quantitation: The QuantiGene® branched DNA assay (Panomics, Inc.; Fremont, Calif.) was used to quantify the reduction of target mRNA in cell cultures treated with SNALP. Cell lysates were prepared according to the manufacturer's instructions and used directly for PLK1 mRNA quantification. Relative PLK-1 mRNA levels are expressed relative to the vehicle (PBS) treated control cells. Specific probe sets used for detection of mRNA were designed to target human PLK-1 mRNA (Genbank Accession No. NM_005030). These probe sets are cross reactive with mouse PLK-1.
PLK-1 SNALP (“2:40” SNALP formulation: 2% PEG-cDMA; 40% DLinDMA; 10% DSPC; and 48% cholesterol) were tested for their ability to silence PLK-1 mRNA in HT29 cells. Cells were plated in duplicates at relatively high concentrations (˜10,000 cells/well). QuantiGene® analysis was performed at 24 hours following transfection to detect the level of mRNA down-regulation. A visual score of the transfected cells was obtained at 48 hours following transfection. Cell viability analysis was performed at 72 hours following transfection.
(§1) SNALP containing PLK1424 or PLK773 siRNA (“2:40” SNALP formulation: 2% PEG-cDMA; 40% DLinDMA; 10% DSPC; and 48% cholesterol) were tested for their effects on cell viability and silencing of PLK-1 mRNA in HT29 and LS174T human colon cancer cells. Cells were plated in triplicate at ˜10,000 cells/well. SNALP dosages were as follows: 30 nM; 10 nM; 3.3 nM; 1.1 nM; 0.37 nM; and 0.12 nM. Branched DNA mRNA assays were performed 24 hours following transfection. Cell viability assays were performed at 72 hours following transfection. SNALP containing a non-targeting (GFP) siRNA were used as a negative control. […] The effects on cell viability correlated with silencing of the target PLK-1 mRNA.

LS174T cells = assay: LS174T cell viability assay; type: cell-based, human; details: SNALP-formulated siRNA, 72 h
Experimental: as §1

[1] = tested on: Flt3-ligand derived murine dendritic cells; assay: Cytokine induction in murine Flt3L dendritic cell cultures (ELISA); type: cell-based, mouse; details: murine Flt3L DC, 5 μg/ml siRNA in SNALP, 24 h
Experimental: Cytokine Induction Assays: Flt3-ligand derived murine dendritic cells (Flt3L DC) were generated as described by Gilliet et al. (J. Exp. Med., 195:953-958) using 100 ng/ml murine Flt3-ligand (PeproTech Inc.; Rocky Hill, N.J.) supplemented media. Femurs and tibiae of female Balb/C mice were isolated and rinsed in sterile PBS. The ends of bones were cut and marrow harvested in complete media (RPMI 1640, 10% heat inactivated FBS, 1% penicillin/streptomycin, 2 mM L-glutamine, 1 mM sodium pyruvate, 25 mM HEPES, 50 μM 2-mercaptoethanol). Bone marrow cells were passed through a 70 μm strainer, centrifuged at 1000 rpm for 7 minutes, and resuspended in complete media supplemented with 100 ng/ml murine Flt3L to 2×10^6 cells/ml. 2 mls of cells were seeded in 6-well plates and 1 ml fresh complete media added every two or three days. On day 9 of culture, non-adherent cells were washed in complete media and plated into 96-well plates at concentrations ranging from 0.5 to 2.5×10^5 cells/well. 2′OMe-modified and unmodified (0/0) PLK-1 SNALP were diluted in PBS and added to Flt3L DC cultures at 5 μg/ml siRNA. Cells were incubated for 24 hours at 37° C. before supernatants were assayed for cytokines by ELISA.
Cytokine ELISA: Interferon-α and IL-6 in culture supernatants were quantified using sandwich ELISA kits according to manufacturer's instructions. These were mouse IFN-α (PBL Biomedical; Piscataway, N.J.) and mouse IL-6 (eBioscience; San Diego, Calif.).
In vitro immune stimulation assays. Mouse Flt3L dendritic cell cultures were generated as described previously (65). In brief, bone marrow from Balb/C mice was harvested in complete media (RPMI 1640, 10% FBS, 1% penicillin/streptomycin, 2 mM L-glutamine, 1 mM sodium pyruvate, 25 mM HEPES, 50 uM 2-mercaptoethanol), passed through a 70 micron strainer and resuspended to 2×10^6 cells/mL in complete media supplemented with 100 ng/mL murine Flt3L (Peprotech). Cells were seeded in 6-well plates and 1 mL fresh Flt3L media added every three days. On day 9 of culture, non-adherent cells were plated into 96 well plates at a concentration 2×10^5 cells/well. Formulated siRNA were diluted in PBS and added to the cells for 24 h before supernatants were assayed for cytokines by ELISA.
Cytokine ELISA. All cytokines were quantified using sandwich ELISA kits.

Row | Substance | anti-proliferative activity in screen of PLK-1 siRNA panel (HT29 cells) | cell viability / killing of human tumor cells (HT29 cells) | PLK-1 mRNA levels (PLK-1 mRNA; HT29 cells) | PLK-1 mRNA levels (PLK-1 mRNA; LS174T cells) | cell viability / inhibition of cell growth (LS174T cells) | cytokine (IL-6, IFN-α) response [1]
1 | PLK1424: siRNA to human PLK-1, SEQ ID NO:1/2 (UU overhang form 211/212) (chain 1 AGAUCACCCUCCUUAAAUA; chain 2 UAUUUAAGGAGGGUGAUCU; further chemistry not given here) | most potent human siRNA | highly potent at killing human tumor cells; also recorded: most potent effects; also recorded: inhibiting cell growth; also recorded: dose-dependent decrease in cell viability | effective at reducing PLK-1 mRNA levels | effective at reducing PLK-1 mRNA levels | inhibiting cell growth; also recorded: potent activity | high levels of both IFNα and IL-6
2 | PLK773: siRNA to human PLK-1, SEQ ID NO:3/4 (UU overhang form 218/219) (chain 1 AGACCUACCUCCGGAUCAA; chain 2 UUGAUCCGGAGGUAGGUCU; RNA, backbone not given here) | most potent mouse, rat, and human cross-reactive siRNA | effective at killing human tumor cells; also recorded: inhibiting cell growth; also recorded: dose-dependent decrease in cell viability | effective at reducing PLK-1 mRNA levels | effective at reducing PLK-1 mRNA levels | inhibiting cell growth | high levels of both IFNα and IL-6
3 | PLK1424-2/A: 2′OMe-modified PLK1424 duplex, SEQ ID NO:214/215 (same SEQ IDs as PLK1424 1/3 of Table 11) (chain 1 AGANCACCCNCCUNAAANAUU; chain 2 UAUUUAANGAGGGUGANCUUU; siRNA; 2'-O-methyl modifications at selected positions, key for n not given here) |  |  |  |  |  | completely abrogated
